Legend:
Assay in all cases: Greenhouse post-emergence mixture trials, percent visual control
Assay type in all cases: in vivo
Velvetleaf (ABUTH) = conditions: for pest or weed control at 5 g/ha: Arylex 5 g ai or ae/ha alone
[1] = test system: Common Lambsquarters (CHEAL)
Corn (ZEAMX) = test system: Corn (ZEAMX)
[2] = Abutilon theophrasti, post-emergence, 504 h, read-out: % Control
[3] = Chenopodium album, post-emergence, 504 h, read-out: % Control

Question: How did the pest or weed control at 5 g/ha (Velvetleaf (ABUTH); Abutilon theophrasti, post-emergence, 504 h, Trial 2 Trt 19, B2 0 g ae/ha, ABUTH, 21 DAA) turn out when `COC(=O)c1nc(-c2ccc(Cl)c(OC)c2F)cc(N)c1Cl` [Arylex, halauxifen-methyl, reference compound] was run?
Answer: The pest or weed control at 5 g/ha was 100%.

Question: What about the pest or weed control at 65 g/ha (Velvetleaf (ABUTH); Abutilon theophrasti, post-emergence, 504 h, Trial 2 Trt 22, B2 0 g ae/ha, Arylex 65 g ai or ae/ha alone, ABUTH, 21 DAA) of the same compound?
Answer: The pest or weed control at 65 g/ha was 100%.

Question: What about the pest or weed control at 5 g/ha (Velvetleaf (ABUTH); Abutilon theophrasti, post-emergence, 504 h, Trial Bridge 1 Trt 7, ABUTH, D10 0 g ae/ha, 21 DAA) of the same compound?
Answer: Its pest or weed control at 5 g/ha is 100%.

Question: And the pest or weed control at 5 g/ha ([1]; Chenopodium album, post-emergence, 504 h, Trial 2 Trt 19: B2 0 g ae/ha, Arylex 5 g ai or ae/ha alone, CHEAL, 21 DAA)?
Answer: Its pest or weed control at 5 g/ha is 100%.

Question: What about the pest or weed control at […] ([1]; Chenopodium album, post-emergence, 504 h, Trial 2 Trt 22: B2 0 g ae/ha, Arylex 6.5 g ai or ae/ha alone, CHEAL, 21 DAA) of the same compound?
Answer: The pest or weed control at […] was 100%.

Question: What about the “% Control” value ([1]; Trial Bridge 1, CHEAL, mixing partner alone (D10 at 0 g ae/ha), Arylex 5 g ai or ae/ha, 21 DAA) of the same compound?
Answer: Its value is 100%.

Question: What about the plant injury at 5 g/ha (Corn (ZEAMX); Zea mays, post-emergence, 504 h, Trial 2 Trt 19, ZEAMX, B2 0 g ae/ha, Arylex 5 g ai or ae/ha alone, 21 DAA) of the same compound?
Answer: Its plant injury at 5 g/ha is 70%.

Question: And the plant injury at […] (Corn (ZEAMX); Zea mays, post-emergence, 504 h, Trial 2 Trt 22, ZEAMX, B2 0 g ae/ha, Arylex 6.5 g ai or ae/ha alone, 21 DAA)?
Answer: Its plant injury at […] is 75%.

Question: What about the plant injury at 5 g/ha (Corn (ZEAMX); Zea mays, post-emergence, 504 h, Trial Bridge 1, ZEAMX, Arylex 5 g ai or ae/ha alone (compound rate 0), 21 DAA, single replicate) of the same compound?
Answer: Its plant injury at 5 g/ha is 65%.

Question: `CCOc1nc(F)cc2nc(S(=O)(=O)Nc3c(Cl)cccc3Cl)nn12` [Diclosulam] was tested. Which pest or weed control at 25 g/ha (Velvetleaf (ABUTH); Abutilon theophrasti, post-emergence, 504 h, Trial 2 Trt 13, B2 0 g ae/ha, Diclosulam 25 g ai or ae/ha alone, ABUTH, 21 DAA) did it give?
Answer: The pest or weed control at 25 g/ha was 100%.

Question: What about the pest or weed control at 35 g/ha (Velvetleaf (ABUTH); Abutilon theophrasti, post-emergence, 504 h, Trial 2 Trt 16, B2 0 g ae/ha, Diclosulam 35 g ai or ae/ha alone, ABUTH, 21 DAA) of the same compound?
Answer: The pest or weed control at 35 g/ha was 98%.

Question: And the pest or weed control at 35 g/ha (Velvetleaf (ABUTH); Abutilon theophrasti, post-emergence, 504 h, Trial Bridge 1 Trt 4, ABUTH, D10 0 g ae/ha, diclosulam 35 g ai or ae/ha alone, 21 DAA)?
Answer: Its pest or weed control at 35 g/ha is 100%.

Question: What about the pest or weed control at 25 g/ha ([1]; Chenopodium album, post-emergence, 504 h, Trial 2 Trt 13: B2 0 g ae/ha, Diclosulam 25 g ai or ae/ha alone, CHEAL, 21 DAA) of the same compound?
Answer: The pest or weed control at 25 g/ha was 40%.

Question: What about the “% Control” value (Corn (ZEAMX); Trial Bridge 1, ZEAMX, diclosulam 35 g ai or ae/ha alone (compound rate 0), 21 DAA, single replicate) of the same compound?
Answer: The value was 70%.

Question: And the plant injury at 25 g/ha (Corn (ZEAMX); Zea mays, post-emergence, 504 h, Trial 2 Trt 13, ZEAMX, B2 0 g ae/ha, Diclosulam 25 g ai or ae/ha alone, 21 DAA)?
Answer: The plant injury at 25 g/ha was 80%.

Question: What about the plant injury at 35 g/ha (Corn (ZEAMX); Zea mays, post-emergence, 504 h, Trial 2 Trt 16, ZEAMX, B2 0 g ae/ha, Diclosulam 35 g ai or ae/ha alone, 21 DAA) of the same compound?
Answer: Its plant injury at 35 g/ha is 95%.

Question: What about the plant injury at 35 g/ha (Corn (ZEAMX); Zea mays, post-emergence, 504 h, Trial Bridge 1, ZEAMX, diclosulam 35 g ai or ae/ha alone (compound rate 0), 21 DAA, single replicate) of the same compound?
Answer: The plant injury at 35 g/ha was 70%.

Question: For `O=C(O)CNCP(=O)(O)O` [Glyphosate, N-(phosphonomethyl) glycine, reference compound], which pest or weed control at 375 g/ha (Velvetleaf (ABUTH); [2]) is on record?
Answer: The pest or weed control at 375 g/ha was 85%.

Question: What about the pest or weed control at 1120 g/ha (Velvetleaf (ABUTH); [2]) of the same compound?
Answer: The pest or weed control at 1120 g/ha was 100%.

Question: What about the pest or weed control at 1680 g/ha (Velvetleaf (ABUTH); [2]) of the same compound?
Answer: Its pest or weed control at 1680 g/ha is 100%.

Question: What about the pest or weed control at 375 g/ha [1, 3] of the same compound?
Answer: The pest or weed control at 375 g/ha was 50%.

Question: What about the pest or weed control at 1120 g/ha [1, 3] of the same compound?
Answer: The pest or weed control at 1120 g/ha was 65%.

Question: What about the pest or weed control at 1680 g/ha [1, 3] of the same compound?
Answer: The pest or weed control at 1680 g/ha was 85%.

Question: And the plant injury at 375 g/ha (Corn (ZEAMX); Zea mays, post-emergence, 504 h, read-out: % Control)?
Answer: The plant injury at 375 g/ha was 70%.

Question: With `CC(C)N(C)S(=O)(=O)NC(=O)c1cc(-n2c(=O)cc(C(F)(F)F)n(C)c2=O)c(F)cc1Cl` [Saflufenacil, reference compound] as the compound, how does the pest or weed control at 25 g/ha (Velvetleaf (ABUTH); Abutilon theophrasti, post-emergence, 504 h, Trial 1, Trt 5, B2 0 g ae/ha, Saflufenacil 25 g ai or ae/ha alone, ABUTH, 21 DAA) read?
Answer: The pest or weed control at 25 g/ha was 100%.

Question: What about the pest or weed control at 50 g/ha (Velvetleaf (ABUTH); Abutilon theophrasti, post-emergence, 504 h, Trial 1, Trt 9, B2 0 g ae/ha, Saflufenacil 50 g ai or ae/ha alone, ABUTH, 21 DAA) of the same compound?
Answer: The pest or weed control at 50 g/ha was 100%.

Question: What about the pest or weed control at 75 g/ha (Velvetleaf (ABUTH); Abutilon theophrasti, post-emergence, 504 h, Trial 1, Trt 13, B2 0 g ae/ha, Saflufenacil 75 g ai or ae/ha alone, ABUTH, 21 DAA) of the same compound?
Answer: The pest or weed control at 75 g/ha was 100%.

Question: What about the pest or weed control at 50 g/ha ([1]; Chenopodium album, post-emergence, 504 h, Trial 1, Trt 9, B2 0 g ae/ha, Saflufenacil 50 g ai or ae/ha alone, CHEAL, 21 DAA) of the same compound?
Answer: Its pest or weed control at 50 g/ha is 95%.

Question: And the pest or weed control at 75 g/ha ([1]; Chenopodium album, post-emergence, 504 h, Trial 1, Trt 13, B2 0 g ae/ha, Saflufenacil 75 g ai or ae/ha alone, CHEAL, 21 DAA)?
Answer: Its pest or weed control at 75 g/ha is 98%.

Question: What about the plant injury at 50 g/ha (Corn (ZEAMX); Zea mays, post-emergence, 504 h, Trial 1 Trt 9, B2 0 g ae/ha, Saflufenacil 50 g ai or ae/ha alone, ZEAMX, 21 DAA) of the same compound?
Answer: Its plant injury at 50 g/ha is 50%.

Question: And the plant injury at 75 g/ha (Corn (ZEAMX); Zea mays, post-emergence, 504 h, Trial 1 Trt 13, B2 0 g ae/ha, Saflufenacil 75 g ai or ae/ha alone, ZEAMX, 21 DAA)?
Answer: The plant injury at 75 g/ha was 45%.

Question: `Cc1nn(-c2cc(NS(C)(=O)=O)c(Cl)cc2Cl)c(=O)n1C(F)F` [Sulfentrazone, N-[2,4-dichloro-5-[4-(difluoromethyl)-4,5-dihydro-3-methyl-5-oxo-1H-1,2,4-triazol-1-yl]phenyl]-methane-sulfonamide, reference compound] was tested. Which “% Control” value (Velvetleaf (ABUTH); ABUTH, 21 DAA, Sulfentrazone 210 g ai/ha alone (compound rate 0 g ae/ha), Trial Bridge 3) did it give?
Answer: Its value is 100%.

Question: What about the pest or weed control at 140 g/ha (Velvetleaf (ABUTH); Abutilon theophrasti, post-emergence, 504 h, ABUTH, 21 DAA, Sulfentrazone 140 g ai/ha alone (compound rate 0 g ae/ha), Trial Bridge 3) of the same compound?
Answer: Its pest or weed control at 140 g/ha is 98%.

Question: What about the pest or weed control at 210 g/ha (Velvetleaf (ABUTH); Abutilon theophrasti, post-emergence, 504 h, ABUTH, 21 DAA, Sulfentrazone 210 g ai/ha alone (compound rate 0 g ae/ha), Trial Bridge 3) of the same compound?
Answer: Its pest or weed control at 210 g/ha is 100%.

Question: What about the pest or weed control at 216 g/ha (Velvetleaf (ABUTH); Abutilon theophrasti, post-emergence, 504 h, ABUTH, 21 DAA, Sulfentrazone 216 g ai/ha alone (compound rate 0 g ae/ha), Trial Bridge 3) of the same compound?
Answer: The pest or weed control at 216 g/ha was 8%.

Question: What about the pest or weed control at 420 g/ha (Velvetleaf (ABUTH); Abutilon theophrasti, post-emergence, 504 h, Trial 1, Trt 25, B2 0 g ae/ha, Sulfentrazone 420 g ai or ae/ha alone, ABUTH, 21 DAA) of the same compound?
Answer: The pest or weed control at 420 g/ha was 80%.

Question: And the pest or weed control at 140 g/ha ([1]; Chenopodium album, post-emergence, 504 h, CHEAL, Trial Bridge 3, Sulfentrazone 140 g ai/ha alone (B2 rate 0), 21 DAA)?
Answer: Its pest or weed control at 140 g/ha is 99%.

Question: What about the pest or weed control at 210 g/ha ([1]; Chenopodium album, post-emergence, 504 h, CHEAL, Trial Bridge 3, Sulfentrazone 210 g ai/ha alone (B2 rate 0), 21 DAA) of the same compound?
Answer: Its pest or weed control at 210 g/ha is 88%.

Question: What about the pest or weed control at 420 g/ha ([1]; Chenopodium album, post-emergence, 504 h, CHEAL, Trial Bridge 3, Sulfentrazone 420 g ai/ha alone (B2 rate 0), 21 DAA) of the same compound?
Answer: The pest or weed control at 420 g/ha was 100%.

Question: What about the pest or weed control at 210 g/ha ([1]; Chenopodium album, post-emergence, 504 h, Trial 1, Trt 21, B2 0 g ae/ha, Sulfentrazone 210 g ai or ae/ha alone, CHEAL, 21 DAA) of the same compound?
Answer: Its pest or weed control at 210 g/ha is 100%.

Question: And the pest or weed control at 420 g/ha ([1]; Chenopodium album, post-emergence, 504 h, Trial 1, Trt 25, B2 0 g ae/ha, Sulfentrazone 420 g ai or ae/ha alone, CHEAL, 21 DAA)?
Answer: Its pest or weed control at 420 g/ha is 99%.

Question: What about the plant injury at 420 g/ha (Corn (ZEAMX); Zea mays, post-emergence, 504 h, Trial 1 Trt 25, B2 0 g ae/ha, Sulfentrazone 420 g ai or ae/ha alone, ZEAMX, 21 DAA) of the same compound?
Answer: The plant injury at 420 g/ha was 25%.

Question: What about the plant injury at 140 g/ha (Corn (ZEAMX); Zea mays, post-emergence, 504 h, ZEAMX, 21 DAA, Sulfentrazone 140 g ai or ae/ha alone (B2 rate 0), Trial Bridge 3) of the same compound?
Answer: The plant injury at 140 g/ha was 40%.

Question: What about the plant injury at 210 g/ha (Corn (ZEAMX); Zea mays, post-emergence, 504 h, ZEAMX, 21 DAA, Sulfentrazone 210 g ai or ae/ha alone (B2 rate 0), Trial Bridge 3) of the same compound?
Answer: The plant injury at 210 g/ha was 40%.

— patent US20260042731A1, “(2,4-DICHLOROPHENOXY)ACETIC ACID ANALOGS” (CORTEVA AGRISCIENCE LLC, priority 2022, published 2026)
